Measurements taken from article PMC7587356, “High-Throughput Screening for Inhibitors of the SARS-CoV-2 Protease Using a FRET-Biosensor” (Molecules, 2020).
Structures can show the parent of a compound that is named as a salt. Where two headings read alike, the source gives them in different places.

Molecular target: SARS-CoV-2 3CLpro (Severe acute respiratory syndrome coronavirus 2, UniProt P0DTD1)
Test: biochemical
Assay type: biochemical
Parameters: Replicate_1 / Replicate_2 / mean / mean (LOPAC_screen_w_protease): unit not given here
Conditions: for inhibition at 5 µM: 4 h
[1] = sheet LOPAC_screen_w_protease, primary screen with protease, 5 µM, mean of two replicates, read-out: mean
[2] = sheet LOPAC_screen_w_protease, primary screen with protease, 5 µM, replicate 1, read-out: Replicate_1
[3] = sheet LOPAC_screen_w_protease, primary screen with protease, 5 µM, replicate 2, read-out: Replicate_2
[4] = sheet LOPAC_screen_w_protease, LOPAC1280 primary screen at 5 µM, with protease, replicate 1, read-out: Replicate_1
[5] = sheet LOPAC_screen_w_protease, LOPAC1280 primary screen at 5 µM, with protease, replicate 2, read-out: Replicate_2
[6] = LOPAC1280 primary screen with protease, 5 µM compound, mean of two replicates
[7] = LOPAC1280 primary screen with protease, 5 µM compound, replicate 1
[8] = LOPAC1280 primary screen with protease, 5 µM compound, replicate 2

In the case of `C/C(=C\c1ccc(C(=O)O)cc1)c1ccc2c(c1)C(C)(C)CCC2(C)C` [TTNPB], the mean (sheet LOPAC_screen_w_protease, primary screen of LOPAC1280 at 5 µM with protease, mean of the two replicates) is reported as 3.657, the Replicate_1 (sheet LOPAC_screen_w_protease, primary screen of LOPAC1280 at 5 µM with protease, replicate 1) is reported as 5.544 and the Replicate_2 (sheet LOPAC_screen_w_protease, primary screen of LOPAC1280 at 5 µM with protease, replicate 2) is reported as 1.7694.

For `NCCS(=O)(=O)O` [Taurine], the inhibition at 5 µM (LOPAC1280 primary screen with protease, 5 µM compound, replicate 1, read-out: Replicate_1 (LOPAC_screen_w_protease)) was 2.66%, the inhibition at 5 µM (LOPAC1280 primary screen with protease, 5 µM compound, replicate 2, read-out: Replicate_2 (LOPAC_screen_w_protease)) was 1.18% and the “mean (LOPAC_screen_w_protease)” value (LOPAC1280 primary screen with protease, 5 µM compound, mean of the two replicates) was 1.917.

`Cc1scc2c1N(C(=O)CN1CCN(C)CC1)c1ccccc1NC2=O` [Telenzepine dihydrochloride] showed an inhibition at 5 µM [1] of 0.413%, an inhibition at 5 µM [2] of -0.915% and an inhibition at 5 µM [3] of 1.74%.

`CC(C)(C)NCC(O)c1cc(O)cc(O)c1.CC(C)(C)NCC(O)c1cc(O)cc(O)c1.O=S(=O)(O)O` (stereo not drawn) [Terbutaline hemisulfate] showed a mean (sheet LOPAC_screen_w_protease, LOPAC1280 at 5 µM, mean of two replicates) of 1.161, a Replicate_1 (sheet LOPAC_screen_w_protease, LOPAC1280 at 5 µM, replicate 1) of -0.3816 and a Replicate_2 (sheet LOPAC_screen_w_protease, LOPAC1280 at 5 µM, replicate 2) of 2.703.

`CCCCNc1ccc(C(=O)OCCN(C)C)cc1` [Tetracaine hydrochloride] showed an inhibition at 5 µM [1] of -0.191%, an inhibition at 5 µM [2] of 0.225% and an inhibition at 5 µM [3] of -0.607%.

Work on `CCCCCCCCCCCCCCSCC(=O)O` [Tetradecylthioacetic acid] yielded an inhibition at 5 µM (sheet LOPAC_screen_w_protease, LOPAC1280 primary screen at 5 µM, with protease, mean of two replicates, read-out: mean) of -1.74%, an inhibition at 5 µM [4] of -1.66% and an inhibition at 5 µM [5] of -1.82%.

`CC[N+](CC)(CC)CC` [Tetraethylammonium chloride] showed an inhibition at 5 µM (read-out: Replicate_1) of 2.25%, an inhibition at 5 µM (read-out: Replicate_2) of -1.51% and an inhibition at 5 µM (read-out: mean) of 0.374%.

In the case of `c1ccc2c(c1)CCCC2C1=NCCN1` (stereo not drawn) [Tetrahydrozoline hydrochloride], the inhibition at 5 µM (sheet LOPAC_screen_w_protease, primary screen with protease, mean of two replicates, read-out: mean) is reported as 2.26%, the inhibition at 5 µM (sheet LOPAC_screen_w_protease, primary screen with protease, replicate 1, read-out: Replicate_1) is reported as 1.87% and the inhibition at 5 µM (sheet LOPAC_screen_w_protease, primary screen with protease, replicate 2, read-out: Replicate_2) is reported as 2.65%.

`CC(C)NP(=O)(NC(C)C)OP(=O)(NC(C)C)NC(C)C` [Tetraisopropyl pyrophosphoramide] gave an inhibition at 5 µM (read-out: Replicate_1) of 1.18%, an inhibition at 5 µM (read-out: Replicate_2) of -0.275% and an inhibition at 5 µM (read-out: mean) of 0.452%.

Work on `c1ccc(C2CN3CCSC3=N2)cc1` (stereo not drawn) [Tetramisole hydrochloride] yielded an inhibition at 5 µM (read-out: Replicate_1) of 1.43%, an inhibition at 5 µM (read-out: Replicate_2) of -2.01% and an inhibition at 5 µM (read-out: mean) of -0.287%.

`C/C=C(/C)C(=O)O[C@H]1C(C)=C2[C@H]([C@@H]1OC(=O)CCCCCCC)[C@@](C)(OC(C)=O)C[C@H](OC(=O)CCC)[C@@]1(O)[C@H]2OC(=O)[C@@]1(C)O` [Thapsigargin] showed an inhibition at 5 µM (sheet LOPAC_screen_w_protease, LOPAC1280 primary screen at 5 µM, with protease, mean of the two replicates, read-out: mean) of 0.567%, an inhibition at 5 µM [4] of 2.46% and an inhibition at 5 µM [5] of -1.32%.

With `Cn1cnc2c1c(=O)[nH]c(=O)n2C` [Theobromine] the inhibition at 5 µM (sheet LOPAC_screen_w_protease, primary screen of LOPAC1280 at 5 µM with protease, mean of the two replicates, read-out: mean) was 3.53%, the inhibition at 5 µM (sheet LOPAC_screen_w_protease, primary screen of LOPAC1280 at 5 µM with protease, replicate 1, read-out: Replicate_1) was 4.5% and the inhibition at 5 µM (sheet LOPAC_screen_w_protease, primary screen of LOPAC1280 at 5 µM with protease, replicate 2, read-out: Replicate_2) was 2.55%.

In the case of `NC(=S)c1ccc[n+]([C@@H]2O[C@@H](COP(=O)([O-])OP(=O)(O)OC[C@H]3O[C@@H](n4cnc5c(N)ncnc54)C(OP(=O)([O-])O)[C@H]3O)C(O)C2O)c1.[Na+]` (stereo partly drawn) [Thio-NADP sodium], the “mean (LOPAC_screen_w_protease)” value [6] is reported as 1.323, the “Replicate_1 (LOPAC_screen_w_protease)” value [7] is reported as 2.439 and the “Replicate_2 (LOPAC_screen_w_protease)” value [8] is reported as 0.2062.

With `C=C/C(C)=C/[C@@]1(C)SC(=O)C(C)=C1O` [Thiolactomycin] the inhibition at 5 µM (sheet LOPAC_screen_w_protease, LOPAC1280 primary screen with protease, 5 µM compound, mean of the two replicates, read-out: mean) was 4.16%, the inhibition at 5 µM (sheet LOPAC_screen_w_protease, LOPAC1280 primary screen with protease, 5 µM compound, replicate 1, read-out: Replicate_1) was 2.88% and the inhibition at 5 µM (sheet LOPAC_screen_w_protease, LOPAC1280 primary screen with protease, 5 µM compound, replicate 2, read-out: Replicate_2) was 5.43%.

Compound `S=C(NC1CCCCC1)N1CCC(c2cnc[nH]2)CC1` [Thioperamide maleate] has an inhibition at 5 µM [1] of -0.179%, an inhibition at 5 µM [2] of -0.586% and an inhibition at 5 µM [3] of 0.227%.

`CSc1ccc2c(c1)N(CCC1CCCCN1C)c1ccccc1S2` (stereo not drawn) [Thioridazine hydrochloride] showed an inhibition at 5 µM (read-out: Replicate_1) of 0.0861%, an inhibition at 5 µM (read-out: Replicate_2) of 0.816% and an inhibition at 5 µM (read-out: mean) of 0.451%.

`CN1CCN(CC/C=C2/c3ccccc3Sc3ccc(S(=O)(=O)N(C)C)cc32)CC1.Cl` [Thiothixene hydrochloride] was tested, and the “mean (LOPAC_screen_w_protease)” value [6] was 1.56, the “Replicate_1 (LOPAC_screen_w_protease)” value [7] was 2.053 and the “Replicate_2 (LOPAC_screen_w_protease)” value [8] was 1.066.

Compound `CCN(CC)CCNC(=O)c1cc(S(C)(=O)=O)ccc1OC` [Tiapride hydrochloride] has an inhibition at 5 µM (sheet LOPAC_screen_w_protease, LOPAC1280 at 5 µM, mean of two replicates, read-out: mean) of 1.21%, an inhibition at 5 µM (sheet LOPAC_screen_w_protease, LOPAC1280 at 5 µM, replicate 1, read-out: Replicate_1) of 1.45% and an inhibition at 5 µM (sheet LOPAC_screen_w_protease, LOPAC1280 at 5 µM, replicate 2, read-out: Replicate_2) of 0.964%.

`Cc1ccc(S(=O)(=O)NC(=O)NN2CCCCCC2)cc1` [Tolazamide] gave an inhibition at 5 µM [1] of -0.908%, an inhibition at 5 µM [2] of -0.0393% and an inhibition at 5 µM [3] of -1.78%.

With `CCCCNc1c(C(=O)OCC)c(C)nc2c1cnn2CC` [Tracazolate] the inhibition at 5 µM [1] was -0.116%, the inhibition at 5 µM [2] was 0.109% and the inhibition at 5 µM [3] was -0.341%.

`COc1ccc(/C=C/C(=O)Nc2ccccc2C(=O)O)cc1OC` [Tranilast] showed an inhibition at 5 µM (read-out: Replicate_1) of 0.566%, an inhibition at 5 µM (read-out: Replicate_2) of -2.13% and an inhibition at 5 µM (read-out: mean) of -0.784%.
